Test system: rats with scopolamine-induced cognitive impairment
Assay: Novel object recognition test using rats with scopolamine-induced cognitive impairment
Format: in vivo, rat (male Long Evans)
Conditions: for effect on the percentage of exploration of the novel object (in words): vs disease control group, p<0.05; for percentage of exploration of the novel object in T2: scopolamine 0.7 mg/kg s.c., mean±standard error
Excerpt: [Test Example 1] Novel Object Recognition Test Using Rats with Scopolamine-Induced Cognitive Impairment
Acetylcholine nervous system disorder has been reported in Alzheimer's disease and Lewy body dementia (Whitehouse et al., Science, 1982, vol. 215, p. 1237, Shimada et al., Neurology, vol. 73, p. 273, 2009, Tiraboschi et al., Neurology 54 (2000) 407-411, Peny et. al., NeuroReport, vol. 5, pp. 747-749 (1994)), and scopolamine-administered animals are utilizable as an animal model for Alzheimer's disease and Lewy body dementia.
Scopolamine is a muscarine receptor inhibitor which blocks acetylcholine nervous system transmission.
6-week-old male Long Evans rats (Institute for Animal Reproduction) were subjected to the test. A habituation process to the experimental procedure was carried out once per day for 2 days prior to the test. In the habituation process, a vehicle was administered to the rats, and then the rats were placed in an empty test apparatus (40 cm×30 cm×45 cm height) and allowed to explore for 3 minutes, and after then placed in a waiting chamber (13 cm×30 cm×45 cm height) for about 1 minute, they were returned to the empty test apparatus again and left for 5 minutes.
An acquisition trial (T1) was carried out on the day of the test. Compound (I) was orally administered 2 hours before T1. Donepezil hydrochloride was orally administered 1 hour before T1. Scopolamine (Wako Pure Chemical Industries, Ltd.) was subcutaneously administered 30 minutes before T1 at a dose of 0.7 mg/kg. In T1, the rats were habituated to the empty test apparatus for 3 minutes and then placed in the waiting chamber. After setting two identical objects in the test apparatus, the rats were returned into the test apparatus again and allowed to freely explore the two identical objects for 5 minutes. The rats were then returned into their rearing cages. After 2 hours, a retention trial (T2) was carried out. The rats were placed in the empty test apparatus for 3 minutes for habituation, and were then transferred into the waiting chamber. After setting an object used in T1 (“familiar” object) and an object not used in T1 (“novel” object) in the test apparatus, the rats were again returned into the test apparatus and allowed to freely explore these objects for 3 minutes. The objects were wiped with a wet wipe impregnated with ethanol after each experiment so as to leave no trace of odor. The behaviors of the rats during T1 and T2 were recorded by a digital video camera, and the total exploration time for each object was manually measured using a stopwatch. Exploratory behavior was defined as the behavior in which the rat brings its nose within 2 cm of the object and directs its nose toward the object.
In the novel object recognition test, the percentage of exploration of the novel object in T2 is considered to be an index for amnesia, reflecting discrimination between the familiar object and the novel object. The percentage of exploration of the novel object was calculated by the following formula. The percentage of exploration of the novel object (%)=N/(N+F)×100 F: time spent in exploring the familiar object N: time spent in exploring the novel object
Rats whose total time spent in exploring the objects during T1 or T2 was 10 seconds or less or rats whose percentage of the time spent in exploring either of the objects during T1 was not less than 70% or not more than 30% of the total exploration time were excluded from the data analysis.
The results were expressed as mean±standard error. The difference between the normal control group untreated with scopolamine and the disease control group treated with scopolamine was analyzed by an unpaired t-test (significant difference: *). The difference between the disease control group and the single drug-treated group was analyzed by Dunnett-type multiple comparison test (significant difference: #).

| Compound | effect on the percentage of exploration of the novel object (in words) (1 mg/kg) | effect on the percentage of exploration of the novel object (in words) (3.3 mg/kg) | percentage of exploration of the novel object in T2 (Table 5, Compound (I) 1 mg/kg alone, oral) | effect on the percentage of exploration of the novel object (in words) (0.03 mg/kg) | effect on the percentage of exploration of the novel object (in words) (0.3 mg/kg) | percentage of exploration of the novel object in T2 (Table 3, Donepezil 0.03 mg/kg oral 1 h before T1) | percentage of exploration of the novel object in T2 (Table 4, Donepezil 0.1 mg/kg oral 1 h before T1) | percentage of exploration of the novel object in T2 (Table 4, Donepezil 0.3 mg/kg oral 1 h before T1, # significant vs disease control) | percentage of exploration of the novel object in T2 (Table 5, Donepezil 0.03 mg/kg alone, oral) |
| --- | --- | --- | --- | --- | --- | --- | --- | --- | --- |
| COc1ncc(C)c(-c2ccc3c(c2)[nH]c(=O)c2cnn([C@H]4CCOC4)c23)c1C [Compound (I), (S)-7-(2-methoxy-3,5-dimethylpyridin-4-yl)-1-(tetrahydrofuran-3-yl)-1H-pyrazolo[4,3-c]quinoline-4(5H)-one] | did not exhibit a significant effect | significant ameliorative effect | 64.9 ± 2.2% |  |  |  |  |  |  |
| COc1cc2c(cc1OC)C(=O)C(CC1CCN(Cc3ccccc3)CC1)C2 (stereo not drawn) [Donepezil, donepezil] |  |  |  | did not exhibit a significant effect | significant ameliorative effect | 62.7 ± 3.6% | 66.2 ± 4.0% | 70.4 ± 4.8# % | 57.8 ± 4.0% |
